Source: patent US12077503B2, “Substituted cyclic amides and their use as herbicides” (FMC CORPORATION, priority 2015, dated 2024)

Experiments:
Assay type in all cases: in vivo
[1] = test system: pigweed (Amaranthus retroflexus); assay: Test A preemergence; conditions: for Plant response rating, Pigweed: 125 g ai/ha, preemergence, 0 to 100 scale (0 no effect, 100 complete control); for Pigweed plant response rating (0 to 100 scale, 0 is no effect, 100 is complete control): Preemergence, 500 g ai/ha, visual injury approx. 10 d
[2] = test system: giant foxtail (Setaria faberii); assay: Test A preemergence; conditions: for Plant response rating, Foxtail, Giant: 125 g ai/ha, preemergence, 0 to 100 scale (0 no effect, 100 complete control); for Foxtail, Giant plant response rating (0 to 100 scale, 0 is no effect, 100 is complete control): Preemergence, 500 g ai/ha, visual injury approx. 10 d
Procedure, shortened: (§1)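 Greenhouse, ~10 d after spray; visual injury vs untreated controls, 0 = no effect, 100 = complete control. Preemergence: directed soil spray over planted seeds. Postemergence: plants 2–10 cm, 1–2 leaf stage. Loam/sand blend. Compound in non-phytotoxic solvent with surfactant.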

Kochia (Kochia scoparia) [3] = assay: Test A preemergence; conditions: for Plant response rating, Kochia: 125 g ai/ha, preemergence, 0 to 100 scale (0 no effect, 100 complete control); for Kochia plant response rating (0 to 100 scale, 0 is no effect, 100 is complete control): Preemergence, 500 g ai/ha, visual injury approx. 10 d
Procedure, shortened: as §1

[4] = test system: ragweed (common ragweed, Ambrosia elatior); assay: Test A preemergence; conditions: for Plant response rating, Ragweed: 125 g ai/ha, preemergence, 0 to 100 scale (0 no effect, 100 complete control); for Ragweed plant response rating (0 to 100 scale, 0 is no effect, 100 is complete control): Preemergence, 500 g ai/ha, visual injury approx. 10 d
Procedure, shortened: as §1

[5] = test system: ryegrass, Italian (Italian ryegrass, Lolium multiflorum); assay: Test A preemergence; conditions: for Plant response rating, Ryegrass, Italian: 125 g ai/ha, preemergence, 0 to 100 scale (0 no effect, 100 complete control); for Ryegrass, Italian plant response rating (0 to 100 scale, 0 is no effect, 100 is complete control): Preemergence, 500 g ai/ha, visual injury approx. 10 d
Procedure, shortened: as §1

[6] = test system: barnyardgrass (Echinochloa crus-galli); assay: Test A preemergence; conditions: for Plant response rating, Barnyardgrass: 125 g ai/ha, preemergence, 0 to 100 scale (0 no effect, 100 complete control); for Barnyardgrass plant response rating (0 to 100 scale, 0 is no effect, 100 is complete control): Preemergence, 500 g ai/ha, visual injury approx. 10 d
Procedure, shortened: as §1

rice (Oryra sativa) = assay: Test B flooded paddy test; conditions: Flood, 0 to 100 scale where 0 is no effect and 100 is complete control, 13 to 15 d
Procedure, shortened: (§2)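 Greenhouse paddy pots with 2-leaf stage plants received compound by direct addition to floodwater 3 cm deep, kept at that level. Scored visually at 13–15 d versus controls (0 no effect; 100 complete control).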

[7] = test system: ducksalad (Heteranthera limosa); assay: Test B flooded paddy test; conditions: Flood, 0 to 100 scale where 0 is no effect and 100 is complete control, 13 to 15 d
Procedure, shortened: as §2

[8] = test system: barnyardgrass (Echinochloa crus-galli); assay: Test B flooded paddy test; conditions: Flood, 0 to 100 scale where 0 is no effect and 100 is complete control, 13 to 15 d
Procedure, shortened: as §2

[9] = test system: sedge, umbrella (small-flower umbrella sedge, Cyperus difformis); assay: Test B flooded paddy test; conditions: Flood, 0 to 100 scale where 0 is no effect and 100 is complete control, 13 to 15 d
Procedure, shortened: as §2

[10] = test system: wheat (Triticum aestivum); assay: Test A postemergence; conditions: postemergence; for Wheat plant response rating: 125 g ai/ha, visual injury rating on 0 to 100 scale (0 no effect, 100 complete control), approx. 10 d; for Plant response rating, Wheat: 500 g ai/ha, 0 to 100 scale, 0 no effect, 100 complete control
Procedure, shortened: as §1

[11] = test system: pigweed (Amaranthus retroflexus); assay: Test A postemergence; conditions: postemergence; for Pigweed plant response rating: 125 g ai/ha, visual injury rating on 0 to 100 scale (0 no effect, 100 complete control), approx. 10 d; for Plant response rating, Pigweed: 500 g ai/ha, 0 to 100 scale, 0 no effect, 100 complete control
Procedure, shortened: as §1

[12] = test system: giant foxtail (Setaria faberii); assay: Test A postemergence; conditions: postemergence; for Foxtail, Giant plant response rating: 125 g ai/ha, visual injury rating on 0 to 100 scale (0 no effect, 100 complete control), approx. 10 d; for Plant response rating, Foxtail, Giant: 500 g ai/ha, 0 to 100 scale, 0 no effect, 100 complete control
Procedure, shortened: as §1

Kochia (Kochia scoparia) [13] = assay: Test A postemergence; conditions: postemergence; for Kochia plant response rating: 125 g ai/ha, visual injury rating on 0 to 100 scale (0 no effect, 100 complete control), approx. 10 d; for Plant response rating, Kochia: 500 g ai/ha, 0 to 100 scale, 0 no effect, 100 complete control
Procedure, shortened: as §1

[14] = test system: Galium (catchweed bedstraw, Galium aparine); assay: Test A postemergence; conditions: postemergence; for Galium plant response rating: 125 g ai/ha, visual injury rating on 0 to 100 scale (0 no effect, 100 complete control), approx. 10 d; for Plant response rating, Galium: 500 g ai/ha, 0 to 100 scale, 0 no effect, 100 complete control
Procedure, shortened: as §1

[15] = test system: blackgrass (Alopecurus myosuroides); assay: Test A postemergence; conditions: postemergence; for Blackgrass plant response rating: 125 g ai/ha, visual injury rating on 0 to 100 scale (0 no effect, 100 complete control), approx. 10 d; for Plant response rating, Blackgrass: 500 g ai/ha, 0 to 100 scale, 0 no effect, 100 complete control
Procedure, shortened: as §1

[16] = test system: ragweed (common ragweed, Ambrosia elatior); assay: Test A postemergence; conditions: postemergence; for Ragweed plant response rating: 125 g ai/ha, visual injury rating on 0 to 100 scale (0 no effect, 100 complete control), approx. 10 d; for Plant response rating, Ragweed: 500 g ai/ha, 0 to 100 scale, 0 no effect, 100 complete control
Procedure, shortened: as §1

[17] = test system: ryegrass, Italian (Italian ryegrass, Lolium multiflorum); assay: Test A postemergence; conditions: postemergence; for Ryegrass, Italian plant response rating: 125 g ai/ha, visual injury rating on 0 to 100 scale (0 no effect, 100 complete control), approx. 10 d; for Plant response rating, Ryegrass, Italian: 500 g ai/ha, 0 to 100 scale, 0 no effect, 100 complete control
Procedure, shortened: as §1

[18] = test system: barnyardgrass (Echinochloa crus-galli); assay: Test A postemergence; conditions: postemergence; for Barnyardgrass plant response rating: 125 g ai/ha, visual injury rating on 0 to 100 scale (0 no effect, 100 complete control), approx. 10 d; for Plant response rating, Barnyardgrass: 500 g ai/ha, 0 to 100 scale, 0 no effect, 100 complete control
Procedure, shortened: as §1

corn (Zea mays) = assay: Test A postemergence; conditions: postemergence; for Corn plant response rating: 125 g ai/ha, visual injury rating on 0 to 100 scale (0 no effect, 100 complete control), approx. 10 d; for Plant response rating, Corn: 500 g ai/ha, 0 to 100 scale, 0 no effect, 100 complete control
Procedure, shortened: as §1

SMILES | Plant response rating, Pigweed [1] | Pigweed plant response rating (0 to 100 scale, 0 is no effect, 100 is complete control) [1] | Plant response rating, Foxtail, Giant [2] | Foxtail, Giant plant response rating (0 to 100 scale, 0 is no effect, 100 is complete control) [2] | Plant response rating, Kochia (Kochia (Kochia scoparia) [3]) | Kochia plant response rating (0 to 100 scale, 0 is no effect, 100 is complete control) (Kochia (Kochia scoparia) [3]) | Plant response rating, Ragweed [4] | Ragweed plant response rating (0 to 100 scale, 0 is no effect, 100 is complete control) [4] | Plant response rating, Ryegrass, Italian [5] | Ryegrass, Italian plant response rating (0 to 100 scale, 0 is no effect, 100 is complete control) [5] | Plant response rating, Barnyardgrass [6] | Barnyardgrass plant response rating (0 to 100 scale, 0 is no effect, 100 is complete control) [6] | Wheat plant response rating [10] | Plant response rating, Wheat [10] | Pigweed plant response rating [11] | Plant response rating, Pigweed [11] | Foxtail, Giant plant response rating [12] | Plant response rating, Foxtail, Giant [12] | Kochia plant response rating (Kochia (Kochia scoparia) [13]) | Plant response rating, Kochia (Kochia (Kochia scoparia) [13]) | also measured
Cc1cc(C2CN(C)C(=O)C2C(=O)Nc2ccccc2C(F)(F)F)ccc1F (stereo not drawn) [Compound 406] | 20 | 50 | 90 | 90 | 0 | 40 | 0 | 40 | 20 | 50 | 90 | 90 | 40 | 70 | 20 | 30 | 80 | 80 | 40 | 50 | Plant response rating, Rice (rice (Oryra sativa); 250 g ai/ha): 0; Plant response rating, Ducksalad ([7]; 250 g ai/ha): 80; Plant response rating, Barnyardgrass ([8]; 250 g ai/ha): 70; Plant response rating, Sedge, Umbrella ([9]; 250 g ai/ha): 0; Galium plant response rating [14]: 50; Plant response rating, Galium [14]: 50; Blackgrass plant response rating [15]: 30; Plant response rating, Blackgrass [15]: 50; Ragweed plant response rating [16]: 20; Plant response rating, Ragweed [16]: 20; Ryegrass, Italian plant response rating [17]: 30; Plant response rating, Ryegrass, Italian [17]: 40; Barnyardgrass plant response rating [18]: 90; Plant response rating, Barnyardgrass [18]: 90; Corn plant response rating (corn (Zea mays)): 20; Plant response rating, Corn (corn (Zea mays)): 70
Cc1ccc(F)c(NC(=O)C2C(=O)NCC2c2ccc(F)c(F)c2)c1 (stereo not drawn) [Compound 408] | 0 | 0 | 0 | 0 | 0 | 0 | 0 | 0 | 0 | 0 | 0 | 0 | 0 | 0 | 0 | 0 | 0 | 0 | 0 | 0 | Plant response rating, Rice (rice (Oryra sativa); 500 g ai/ha): 0; Plant response rating, Ducksalad ([7]; 500 g ai/ha): 0; Plant response rating, Barnyardgrass ([8]; 500 g ai/ha): 0; Plant response rating, Sedge, Umbrella ([9]; 500 g ai/ha): 0; Galium plant response rating [14]: 0; Plant response rating, Galium [14]: 0; Blackgrass plant response rating [15]: 0; Plant response rating, Blackgrass [15]: 0; Ragweed plant response rating [16]: 0; Plant response rating, Ragweed [16]: 0; Ryegrass, Italian plant response rating [17]: 0; Plant response rating, Ryegrass, Italian [17]: 0; Barnyardgrass plant response rating [18]: 0; Plant response rating, Barnyardgrass [18]: 0; Corn plant response rating (corn (Zea mays)): 0; Plant response rating, Corn (corn (Zea mays)): 0
Cc1cccc(NC(=O)C2C(=O)NCC2c2ccc(F)c(F)c2)c1F (stereo not drawn) [Compound 409] | 0 | 10 | 80 | 90 | 0 | 0 | 0 | 0 | 0 | 0 | 70 | 80 | 0 | 0 | 0 | 20 | 60 | 80 | 0 | 30 | Plant response rating, Rice (rice (Oryra sativa); 500 g ai/ha): 30; Plant response rating, Ducksalad ([7]; 500 g ai/ha): 40; Plant response rating, Barnyardgrass ([8]; 500 g ai/ha): 40; Plant response rating, Sedge, Umbrella ([9]; 500 g ai/ha): 0; Galium plant response rating [14]: 0; Plant response rating, Galium [14]: 0; Blackgrass plant response rating [15]: 10; Plant response rating, Blackgrass [15]: 20; Ragweed plant response rating [16]: 0; Plant response rating, Ragweed [16]: 0; Ryegrass, Italian plant response rating [17]: 0; Plant response rating, Ryegrass, Italian [17]: 0; Barnyardgrass plant response rating [18]: 60; Plant response rating, Barnyardgrass [18]: 70; Corn plant response rating (corn (Zea mays)): 0; Plant response rating, Corn (corn (Zea mays)): 0
